Measurements taken from publication PMC6100075, “Correlation between the Potency of Flavonoids on Mushroom Tyrosinase Inhibitory Activity and Melanin Synthesis in Melanocytes” (Molecules : A Journal of Synthetic Chemistry and Natural …, 2018).
Where two headings read alike, the source gives them in different places.

Key:
[1] = molecular target: mushroom tyrosinase (Agaricus bisporus, UniProt C7FF04); assay: Mushroom tyrosinase inhibitory assay (o-diphenolase activity, L-DOPA as substrate); format: biochemical; details: for inhibition at 200 µM: read-out: Mushroom Tyrosinase Inhibition % Inhibition (at 200 μM); for behaviour as substrate of mushroom tyrosinase (in words): pre-incubation with enzyme in absence of L-DOPA, coloured product at 475 nm; for inhibitory activity on mushroom tyrosinase (in words): o-diphenolase; for inhibition at 300 µM: read-out: Mushroom Tyrosinase Inhibition % Inhibition (at 300 μM);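 as to all read-outs here: enzyme and test sample preincubated 10 min at 25 °C in pH 6.8 phosphate buffer, 50% DMSO vehicle as control, enzyme-free mixture as blank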
[2] = molecular target: T1, murine tyrosinase (Mus musculus, UniProt P11344); assay: Murine tyrosinase inhibitory assay (o-diphenolase activity, crude enzyme from B16-F10 melanoma cells); format: biochemical;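 also: crude tyrosinase taken from lysed, dialyzed B16-F10 cell extract, with the inhibition reaction incubated for 2 h at 37 °C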
T1 construct: The cells were lysed by vortex and incubated at 4 °C for 1 h to solubilize the tyrosinase enzyme; endogenous in cells; host or cells: B16-F10 melanoma cells (Triton X-100 lysate, dialyzed)
T1 sequence (P11344 19-533): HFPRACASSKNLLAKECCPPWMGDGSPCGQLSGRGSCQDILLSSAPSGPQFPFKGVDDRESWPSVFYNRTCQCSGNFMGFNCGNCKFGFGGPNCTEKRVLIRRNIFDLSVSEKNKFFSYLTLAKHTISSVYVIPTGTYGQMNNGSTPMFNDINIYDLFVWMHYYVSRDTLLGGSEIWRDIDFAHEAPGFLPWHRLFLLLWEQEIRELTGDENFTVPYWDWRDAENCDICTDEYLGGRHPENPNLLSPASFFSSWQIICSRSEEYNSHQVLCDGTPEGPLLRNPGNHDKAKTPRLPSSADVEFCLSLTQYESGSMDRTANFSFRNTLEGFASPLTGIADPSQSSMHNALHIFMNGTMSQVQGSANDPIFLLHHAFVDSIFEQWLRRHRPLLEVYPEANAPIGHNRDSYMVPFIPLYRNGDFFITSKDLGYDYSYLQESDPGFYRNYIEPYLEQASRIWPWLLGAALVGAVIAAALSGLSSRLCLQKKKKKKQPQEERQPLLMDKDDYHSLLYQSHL

[3] = system: B16-F10 melanoma cells; assay: Total melanin content assay; format: cell-based, Mus musculus (mouse); details: for activity at 15 µM / activity at 30 µM: read-out: % Melanin Content
Method: Mus musculus (mouse) melanoma cell line, B16-F10 (ATCC® Number: CRL-6475™, Manassas, VA, USA), was cultured in complete Dulbecco′s Modified Eagle′s Medium (DMEM, phenol red-free medium) containing 10% fetal bovine serum, 25 mM glucose, 4 mM L-glutamine, 1 mM sodium pyruvate, 10 μg/mL penicillin, and 10 μg/mL streptomycin, at 37 °C, with 5% carbon dioxide (CO2) in a humidified atmosphere.
The total melanin content, produced both extracellularly and intracellularly, was determined as follows: B16-F10 cells were seeded onto a 24-well plate at a concentration of 50,000 cells/0.5 mL/well and were incubated for 24 h, followed by treatment with either the test compounds or the control (0.5% DMSO), and then incubated for 72 h. For extraction, the total produced melanin and 0.5 mL of 2 N NaOH containing 20% DMSO were added directly to the cell culture medium, mixed by pipetting and then incubated at room temperature for 1 h. The lysed cell extract was centrifuged at 13,000× g for 5 min. Finally, the supernatant was transferred to a 96-well plate and the relative melanin content was detected at 405 nm using a micro plate reader. Kojic acid and oxyresveratrol were used as positive controls.

[4] = Cell viability assay (PrestoBlue resazurin); format: cell-based, Mus musculus (mouse); details: mouse;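 also: mouse B16-F10 melanoma cells exposed to test samples for 72 h, with viability read as fluorescence of resorufin formed when living cells reduce PrestoBlue resazurin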
[5] = system: human melanoma cells (MMV II); parameters: method as in PMID 25248426; details: cited from earlier work
[6] = 200 μM, L-DOPA substrate, read-out: Murine Tyrosinase Inhibition, % (at 200 μM)
[7] = Mus musculus, B16-F10, 15 μM, 72 h, relative to control
[8] = Mus musculus, B16-F10, 30 μM, 72 h, relative to control
[9] = B16-F10 melanoma cells, 15 μM, 72 h, relative to control, read-out: % Cell Viability
[10] = B16-F10 melanoma cells, 30 μM, 72 h, relative to control, read-out: % Cell Viability
[11] = 200 μM, L-DOPA substrate, read-out: Murine Tyrosinase Inhibition, % (at 200 μM), symbol

Chain of mushroom tyrosinase (G1K3P4 entry or part of it): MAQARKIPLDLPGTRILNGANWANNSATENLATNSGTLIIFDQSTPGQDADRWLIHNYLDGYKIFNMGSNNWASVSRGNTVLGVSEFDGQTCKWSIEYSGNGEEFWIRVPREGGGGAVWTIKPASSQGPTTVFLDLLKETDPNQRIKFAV
Chain of mushroom tyrosinase (C7FF04 2-392): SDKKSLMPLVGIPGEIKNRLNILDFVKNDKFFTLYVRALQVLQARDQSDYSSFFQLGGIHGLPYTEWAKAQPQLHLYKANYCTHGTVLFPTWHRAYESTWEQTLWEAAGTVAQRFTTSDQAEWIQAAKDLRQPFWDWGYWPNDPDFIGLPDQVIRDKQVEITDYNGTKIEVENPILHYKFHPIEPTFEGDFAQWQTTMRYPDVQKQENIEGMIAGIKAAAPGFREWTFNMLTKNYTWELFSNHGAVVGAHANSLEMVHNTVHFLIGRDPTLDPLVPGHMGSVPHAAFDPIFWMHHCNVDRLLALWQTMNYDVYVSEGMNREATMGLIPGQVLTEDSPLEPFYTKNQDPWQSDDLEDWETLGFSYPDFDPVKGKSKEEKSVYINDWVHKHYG

Structure (SMILES)	inhibition at 200 µM [2, 11]	activity at 15 µM [3, 7]	activity at 30 µM [3, 8]	viability at 72 h, 15 µM [4, 9]	viability at 72 h, 30 µM [4, 10]	also measured
COc1ccc(C2COc3cc(O)ccc3C2=O)c(O)c1OC (stereo not shown) [Compound 13, Dalparvin B]	–	102 ± 2.7%	99.1 ± 2.3%	82.3 ± 5.4%	74.1 ± 6.4%	inhibition at 500 µM ([1]; L-DOPA substrate): 4%; inhibition at 200 µM [2, 6]: 9.8 ± 2.8%
O=c1cc(-c2ccc(O)cc2)oc2cc(O)cc(O)c12 [apigenin]	–	–	–	–	–	effect on melanogenesis (in words) [5]: melanogenesis-promoting actions
O=C1C[C@@H](c2ccc(O)cc2)Oc2cc(O)ccc21 [Compound 24, (2S)-Liquiritigenin]	–	103 ± 5.5%	124 ± 2%	98.9 ± 10.7%	100 ± 3.5%	inhibition at 200 µM [1]: 52.1 ± 1.4%; inhibition at 200 µM [2, 6]: 13.2 ± 2.7%
COc1cc(OC)c(C2COc3cc(O)ccc3C2=O)cc1O (stereo not shown) [Compound 12, Dalparvin]	< 0%	134 ± 9.7%	200 ± 12.1%	117 ± 8.9%	99.7 ± 6.7%	inhibition at 200 µM ([1]; 200 μM, L-DOPA substrate): 31.6 ± 0.5%
O=C1C[C@@H](c2ccc(O)cc2)Oc2cc(O)cc(O)c21 [Compound 25, (2S)-Naringenin]	< 0%	132 ± 14.5%	152 ± 3.8%	94.3 ± 2%	98.1 ± 0.5%	behaviour as substrate of mushroom tyrosinase (in words) [1]: chromogenic substrate analogs; effect on melanin content (in words, Figure 1) ([3]; 30 μM): increased the melanin content
COc1ccc(-c2coc3cc(O)cc(O)c3c2=O)cc1 [Compound 3, Biochanin A]	< 0%	165 ± 5.9%	168 ± 5.1%	103 ± 4.5%	102 ± 4.8%	inhibition at 200 µM ([1]; 200 μM, L-DOPA substrate): 9.2 ± 0.4%; inhibitory activity on mushroom tyrosinase (in words) ([1]; L-DOPA substrate): did not show inhibitory activity
COc1ccc(-c2coc3cc(O)ccc3c2=O)cc1 [Compound 1, Formononetin]	< 0%	134 ± 2.7%	155 ± 15.4%	96 ± 3.3%	92.8 ± 9.4%	inhibition at 300 µM ([1]; L-DOPA substrate): 10%; inhibitory activity on mushroom tyrosinase (in words) ([1]; L-DOPA substrate): did not show inhibitory activity
COc1ccc([C@@H]2COc3cc(O)ccc3C2)c(OC)c1O [Compound 20, (3R)(+)-Mucronulatol]	–	179 ± 15.9%	264 ± 8.2%	104 ± 6.9%	102 ± 2.7%	inhibition at 200 µM ([1]; 200 μM, L-DOPA substrate): 48.3 ± 1.6%; inhibition at 200 µM [2, 6]: 12.8 ± 2.1%
COc1cc2c(cc1C1COc3cc(O)ccc3C1=O)OCO2 (stereo not shown) [Compound 11, Onogenin]	< 0%	134 ± 4.6%	170 ± 15.4%	100 ± 5%	92 ± 2%	inhibition at 300 µM ([1]; L-DOPA substrate): 0%
COc1ccc([C@@H]2COc3cc(O)ccc3C2)c(O)c1 [Compound 19, (3R)-Vestitol]	–	186.1 ± 1.6%	232 ± 9.3%	142 ± 3%	120 ± 4.1%	inhibition at 200 µM ([1]; 200 μM, L-DOPA substrate): 35.6 ± 2.2%; inhibition at 200 µM [2, 6]: 12.4 ± 3.3%
COc1ccc(C2COc3cc(O)ccc3C2=O)c(OC)c1OC [Compound 15, (3R,S)-3′-O-Methylviolanone]	< 0%	143 ± 8.4%	157 ± 11.5%	74.2 ± 7.8%	72.9 ± 6.2%	inhibition at 300 µM ([1]; L-DOPA substrate): 0%
COc1cc(-c2coc3cc(O)cc(O)c3c2=O)ccc1O [Compound 6, 3′-O-Methylorobol]	< 0%	170 ± 10.5%	216 ± 15.7%	107 ± 6.2%	102 ± 2.7%	inhibition at 200 µM ([1]; 200 μM, L-DOPA substrate): 14.3 ± 1.1%; inhibitory activity on mushroom tyrosinase (in words) ([1]; L-DOPA substrate): did not show inhibitory activity
COc1cc(O)c2c(=O)c(-c3ccc(O)cc3O)coc2c1 [Compound 9, Cajanin]	–	–	–	–	–	inhibition at 200 µM [1]: 65 ± 1.6%; inhibition at 200 µM ([2]; read-out: Murine Tyrosinase Inhibition, % (at 200 μM)): 9.2 ± 1.5%; effect on melanin content (in words, Figure 1) ([3]; 30 μM): inhibitory effect of melanogenesis; activity at 15 µM ([3]; Mus musculus, B16-F10, 72 h): 65.8 ± 7.5%; activity at 30 µM ([3]; Mus musculus, B16-F10, 72 h): 61.6 ± 8.9%; inhibition at 15 µM ([3]; Mus musculus, B16-F10, read-out: inhibition of melanogenesis): 34%; viability at 72 h, 15 µM ([4]; 15 μM, 72 h, relative to control, read-out: % Cell Viability): 102 ± 6.6%; viability at 72 h, 30 µM ([4]; 30 μM, 72 h, relative to control, read-out: % Cell Viability): 107 ± 3.3%
COc1ccc(-c2coc3cc(O)cc(O)c3c2=O)c(OC)c1O [Compound 7, Khrinone C]	< 0%	107.6 ± 0.8%	154 ± 9.9%	93.3 ± 2%	93.4 ± 2%	inhibition at 300 µM ([1]; L-DOPA substrate): 2%; inhibitory activity on mushroom tyrosinase (in words) ([1]; L-DOPA substrate): did not show inhibitory activity
O=c1cc(CO)occ1O [Kojic acid, reference compound]	–	68.9 ± 5.2%	74.2 ± 5.8%	98.9 ± 4.7%	99.6 ± 2.3%	–
COc1c(O)cc2occ(-c3ccc(O)cc3)c(=O)c2c1O [Compound 8, Tectorigenin]	–	128 ± 2.8%	152 ± 4.7%	130 ± 3.4%	119 ± 1.3%	behaviour as substrate of mushroom tyrosinase (in words) [1]: chromogenic substrate analogs; inhibition at 200 µM [2, 6]: 10.2 ± 2.9%
COc1ccc([C@@H]2COc3cc(O)ccc3C2=O)cc1O [Compound 10, (3R)-7,3′-Dihydroxy-4′-methoxy-isoflavanone]	< 0%	95.1 ± 3%	95.2 ± 2.7%	94.9 ± 3.9%	96.5 ± 3.9%	inhibition at 200 µM [1]: 52.1 ± 0.4%
Oc1cc(O)cc(/C=C/c2ccc(O)cc2O)c1 [Oxyresveratrol, reference compound]	–	24.3 ± 1.1%	28.4 ± 1.7%	–	–	inhibition at 200 µM [1]: 98.4 ± 1.1%; viability at 72 h, 15 µM ([4]; % Cell Viability): 117 ± 2.2%; viability at 72 h, 30 µM ([4]; % Cell Viability): 118 ± 5.1%

Now from value to compound, other results behind:

inhibition at 200 µM [2, 11]	Structure (SMILES)	activity at 15 µM [3, 7]	activity at 30 µM [3, 8]	viability at 72 h, 15 µM [4, 9]	viability at 72 h, 30 µM [4, 10]	also measured
< 0%	COc1cc(OC)c(C2COc3cc(O)cc(O)c3C2=O)cc1O (stereo not shown) [Compound 18, Dalparvin A]	132 ± 4.4%	184 ± 10.6%	105 ± 4.8%	100 ± 7.1%	inhibition at 500 µM ([1]; L-DOPA substrate): 0%
< 0%	COc1ccc([C@H]2COc3c(ccc(O)c3O)C2)c(OC)c1O [Compound 23, (3S)-8-Demethylduartin]	87.8 ± 2%	72.7 ± 4.3%	93.5 ± 3%	98.3 ± 5.4%	behaviour as substrate of mushroom tyrosinase (in words) [1]: chromogenic substrate analog
< 0%	COc1ccc([C@H]2COc3cc(O)cc(O)c3C2=O)c(OC)c1O [Compound 17, (3S)-Secundiflorol H]	118 ± 17.7%	146 ± 6.1%	109 ± 6.6%	103 ± 4.1%	inhibition at 200 µM ([1]; 200 μM, L-DOPA substrate): 44 ± 3.7%
< 0%	COc1ccc(C2COc3c(ccc(O)c3OC)C2)c(OC)c1O (stereo not shown) [Compound 22, Duartin]	301.1 ± 2.3%	326.8 ± 2.1%	140 ± 7.5%	94.4 ± 2.8%	inhibition at 500 µM ([1]; L-DOPA substrate): 0%; increase in melanin content with respect to the control [3]: three-fold increase; effect on melanin content (in words, Figure 1) ([3]; 30 μM): increased the melanin content
< 0%	COc1ccc(C2COc3cc(O)cc(O)c3C2=O)cc1O [Compound 16, (3R,S)-Kenusanone G]	133 ± 5.1%	158 ± 13.5%	124 ± 1.7%	102 ± 2.8%	inhibition at 500 µM ([1]; L-DOPA substrate): 0%
